{"source": "patent US6040303A", "about": "“7-phenyl-1, 4-diazepane compounds, process for their preparation, and pharmaceutical compositions containing them” (Solvay Pharmaceuticals GmbH, priority 1997, dated 2000)", "key": {"[1]": {"molecular_target": "T1, human NK-1 receptors (Homo sapiens, UniProt P25103)", "T1 construct": "expressed in transfected cells; host or cells: CHO cells (membrane preparation)", "T1 sequence (P25103 whole entry)": "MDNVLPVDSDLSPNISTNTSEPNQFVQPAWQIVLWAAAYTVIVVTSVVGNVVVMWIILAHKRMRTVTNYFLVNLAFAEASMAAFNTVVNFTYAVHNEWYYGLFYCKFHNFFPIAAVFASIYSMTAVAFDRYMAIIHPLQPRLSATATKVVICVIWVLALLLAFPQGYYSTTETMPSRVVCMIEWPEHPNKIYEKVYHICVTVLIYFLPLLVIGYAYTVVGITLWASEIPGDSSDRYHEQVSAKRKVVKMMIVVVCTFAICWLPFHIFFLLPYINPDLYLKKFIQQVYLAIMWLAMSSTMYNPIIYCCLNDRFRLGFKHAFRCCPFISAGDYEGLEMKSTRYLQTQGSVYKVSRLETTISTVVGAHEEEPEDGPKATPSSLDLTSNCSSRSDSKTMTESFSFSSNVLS", "assay": "Binding affinity to human NK-1 receptors ([3H]-substance P displacement, membranes of CHO cells)", "settings": "membrane preparation of CHO cells expressing human NK-1 receptor, Ki calculated from IC50, read-out: In vitro binding to human NK-1 receptors - Ki value", "description": "1. Determination of the binding power of the test substances to NK-1 receptors.\nThe affinity of the test substances to human NK-1 receptors was measured in vitro, and the inhibition of the binding of the physiological neurokinin substance P to neurokinin-1 receptors was determined.\nThe receptor binding studies were performed with [^3 H]-substance P as ligand. For the binding test, different samples of a membrane preparation of CHO cells (=egg cells of the Chinese hamster, […]), which express the human NK-1 receptor, were incubated with a solution of the marked ligand, with the incubation mixtures containing no test substance or additions of different concentrations of test substance. Then, bound and free ligands in each of the samples were separated with the aid of glass-fiber filtration. The fraction remaining in the filter was washed several times with buffer solution, and then the radioactivity of the fraction remaining in the filter was measured using a beta scintillation counter. That concentration which effects half maximum displacement of the bound ligand was determined as IC50 of the respective test substance. From this, the corresponding inhibition constant (Ki value) of the test substance was calculated.\nThe example numbers listed for the compounds of Formula I relate to the following preparative examples."}, "[2]": {"tested_on": "visceral sensitivity to pain in rats (distension-induced contractions of the abdominal muscles)", "assay": "Influencing of the visceral sensitivity to pain: distension-induced abdominal contractions in rats", "format": "in vivo", "settings": "rat, subcutaneous, 20 minutes after administration", "source_text": "3. Investigation of the activity of the compounds on the visceral sensitivity to pain in rats.\nVisceral pain leads to visceral reactions which manifest themselves, inter alia, by contractions of the abdominal muscles. The number of contractions of the abdominal muscles occurring after a mechanical pain stimulus caused by distending the large intestine is thus a measurement for determining the visceral sensitivity to pain.\nThe inhibiting activity of the test substances on distension-induced abdominal contractions was tested in rats. The distension of the large intestine with an introduced balloon was used as the stimulus; the contraction of the abdominal muscles was measured as response. One hour after the sensitising of the large intestine by instillation of dilute acetic acid (0.6%, 1.5 ml), a latex balloon was introduced and inflated to 100 mbar for 10 minutes. During this time, the contractions of the abdominal muscles were counted. 20 minutes after subcutaneous administration of the test substance, this measurement was repeated. The activity of the test substance was calculated as a percentage reduction in the counted contractions compared with the control. The reductions in the number of abdominal contractions achieved with different doses of the test substance of Example 1 are listed in percentages, relative to the control values (=100%) measured before ingestion of the substance in the following Table 3."}, "[3]": {"tested_on": "stool passage through the colon of the rat", "assay": "Influencing of colon passage: barium sulfate elimination after oral administration in rats", "format": "in vivo", "description": "2. Investigation of the activity of the compounds on stool passage through the colon of the rat.\nThe effects of the test substances on the transport of stools through the large intestine were examined in rats after feeding. After feeding, the beginning of elimination and the mean dwell time of barium sulfate in the colon were determined as a measurement of the colon motility leading to elimination of stools.\nAfter oral administration of the test substance, the animals were administered 2 ml of an 80% barium sulfate suspension via an artificial outlet at the caecum. The animals were placed in metabolism cages, and the faeces were collected at one hour intervals over 24 hours. The content of barium sulfate in the faeces was measured using radiography, and the beginning of elimination of barium sulfate and the mean retention time were determined therefrom. The delays in the beginning of elimination and prolongations of the mean residence time of the barium sulfate achieved in this experimental arrangement with various doses of the test substance of Example 1 can be seen from the following Table 2. The time interval up to the beginning of elimination and the mean retention time are given in percentages relative to the values obtained in a control test without test substance (=100%)."}}}
{"compound": "COc1ccccc1CN(C)CCCC(=O)N1CCC(c2ccccc2)N(C(=O)c2cc(C(F)(F)F)cc(C(F)(F)F)c2)CC1", "note": "(single isomer, unassigned; (-)) [Example 2, (-)-1-(3,5-bistrifluoromethylbenzoyl)-4-{[3-[N-(2-methoxybenzyl)-N-methyl]amino]propylcarbonyl}-7-phenyl-1,4-diazepane]", "values": [{"measurement": "Ki", "setting": "[1]", "value": 10, "unit": "nM"}]}
{"compound": "COc1ccccc1CN(C)CCCC(=O)N1CCC(c2ccccc2)N(C(=O)c2cc(C(F)(F)F)cc(C(F)(F)F)c2)CC1", "note": "(stereo not shown) [Example 1, 1-(3,5-bistrifluoromethylbenzoyl)-4-{[3-[N-(2-methoxybenzyl)-N-methyl]amino]propylcarbonyl}-7-phenyl-1,4-diazepane]", "values": [{"measurement": "Reduction in the number of distension-induced contractions of the abdominal muscles in % relative to control value = 100%", "setting": "[2]; 10 μmole/kg", "value": 33, "unit": "%"}, {"measurement": "Reduction in the number of distension-induced contractions of the abdominal muscles in % relative to control value = 100%", "setting": "[2]; 21.5 μmole/kg", "value": 39, "unit": "%"}, {"measurement": "Reduction in the number of distension-induced contractions of the abdominal muscles in % relative to control value = 100%", "setting": "[2]; 100 μmole/kg", "value": 61, "unit": "%"}, {"measurement": "Mean retention time in % relative to control value = 100%", "setting": "[3]; 10 μmole/kg", "value": 98, "unit": "%"}, {"measurement": "Time interval until beginning of elimination in % relative to control value = 100%", "setting": "[3]; 10 μmole/kg", "value": 100, "unit": "%"}, {"measurement": "Mean retention time in % relative to control value = 100%", "setting": "[3]; 21.5 μmole/kg", "value": 106, "unit": "%"}, {"measurement": "Time interval until beginning of elimination in % relative to control value = 100%", "setting": "[3]; 21.5 μmole/kg", "value": 115, "unit": "%"}, {"measurement": "Mean retention time in % relative to control value = 100%", "setting": "[3]; 100 μmole/kg", "value": 119, "unit": "%"}, {"measurement": "Time interval until beginning of elimination in % relative to control value = 100%", "setting": "[3]; 100 μmole/kg", "value": 138, "unit": "%"}, {"measurement": "Ki", "setting": "[1]", "value": 12, "unit": "nM"}]}
{"compound": "COc1ccccc1CNCC(=O)N1CCC(c2ccccc2)N(C(=O)c2cc(C)cc(C)c2)CC1", "note": "(stereo not shown) [Example 4, 1-(3,5-dimethylbenzoyl)-4-{[N-(2-methoxybenzyl)amino]acetyl}-7-phenyl-1,4-diazepane]", "values": [{"measurement": "Ki", "setting": "[1]", "value": 8, "unit": "nM"}]}
{"compound": "COc1ccccc1CNCCCC(=O)N1CCC(c2ccccc2)N(C(=O)c2cc(C(F)(F)F)cc(C(F)(F)F)c2)CC1", "note": "(stereo not shown) [Example 14]", "values": [{"measurement": "Ki", "setting": "[1]", "value": 10, "unit": "nM"}]}
